According to PMC5672024, “Selective Glucocorticoid Receptor Properties of GSK866 Analogs with Cysteine Reactive Warheads” (Frontiers in Immunology, 2017):
pIC50, pKi: −log10 of the molar value.

Experiments:
[1] = test system: GR transactivation, p(GRE)2-50-luc reporter in HaCat cells; test: p(GRE)2-50-luc reporter gene assay (GR transactivation); assay type: cell-based; conditions: 6 h; for GR transactivation in GRE-luc reporter: concentration range 10^−6–10^−10 M
Method: (§1) In order to compare transactivation and transrepression potencies of the different synthesized GSK866 analogs, we performed GRE- and NFκB-luciferase-dependent reporter gene studies in stable transfected cell lines, as previously described ([3], [8]). HaCat cells expressing p(GRE)2 50-Luc and L929sA cells expressing p(GRE)250-Luc or p(NFκB)350-Luc were cultured in DMEM medium with 1% L-glutamine, supplemented with 10% feral bovine serum (FBS), 100 µg/ml streptomycin, and 100 IU/mL penicillin in a humidified 5% CO2 atmosphere. Cells were passaged every 2 days at a dilution of 1:6. Reporter gene cells were plated at a density of 0.5 × 10^5 cells/well in 24 well plates and grown overnight. p(GRE)250-Luc-dependent reporter gene cells were treated with solvent (DMSO) or compound (100 fM, 1 nM, 10 nM, 100 nM, and 1 µM) for 6 h, whereas in case of p(NFκB)350-Luc, TNF (2,500 IU/mL) was added 2 h following compound treatment. After incubation with the compounds, medium was removed and cells were washed twice with PBS followed by adding 100 µl of 1× lysis buffer (0.2 M K2HPO4, 0.2 M KH2PO4, Triton X-100, pH 7.6). 25 µl of lysate was assayed for luciferase activity by adding 50 µl of luciferase assay substrate (1 mM luciferin or luciferin salt, 3 mM ATP, and 15 mM MgSO4 in 30 mM HEPES buffer, pH 7.8) followed by 10 s mixing and measuring 1 s bioluminescence using an Envision multilabel reader (Perkin Elmer).
(§2) Figure 3 Selective glucocorticoid receptor agonist GSK866 analogs UAMC-1217, UAMC-1218 but not UAMC-1158 and UAMC-1159 elicit selective glucocorticoid receptor-transactivation and NFκB-transrepression properties. Glucocorticoid response element (GRE)- and NFκB-luciferase-dependent reporter gene assays were performed in L929sA and HaCat reporter cells which were stably transfected with, respectively, p(NFκB)3-50luc or p(GRE)2-50-luc constructs. For p(GRE)2-50-luc reporter assays, cells were solvent-treated or induced with different concentrations of Dex (A), Dex-mesylate (Dex-Mes) (A), SEGRA GSK866 (C) or analogs UAMC-1158 (D), UAMC-1159 (E), UAMC-1217 (F), and UAMC-1218 (G) as indicated for a total exposure time of 6 h, whereas cells were cotreated for TNF (2,500 IU/ml) in the last 4 h for p(NFkB)3-50luc reporter assays (B–G). Corresponding lysates were assayed for luciferase activities and normalized for protein content as described in the Section “Materials and Methods.” Promoter activities are expressed as relative induction factor (± standard deviation) i.e., the ratio of expression levels recorded either at induced and non-induced conditions, with the latter taken to be 1.

[2] = test system: TNF-induced NFκB reporter gene activity in L929sA cells; test: p(NFκB)3-50luc reporter gene assay with TNF (NFκB transrepression); assay type: cell-based; conditions: TNF 2,500 IU/ml; for NFκB transrepression in NFκB-luc reporter: dose range
Method: as §1, §2

[3] = test system: GR Ser211 phosphorylation; test: Western blot of GR Ser211 phosphorylation; assay type: cell-based; conditions: 1 µM, 6 h (UAMC-1158: Figure S2, 4 or 24 h)
Method: Whole cell extracts contain multiple protease inhibitors (Complete Mini®, Roche) and Halt phosphatase inhibitor cocktail (Thermoscientific). Soluble protein extracts were obtained after three times freeze and thaw cycles and centrifugation at […] for 15 min at 4°C. Samples were separated by sodium dodecyl sulfate-polyacrylamidegel electrophoresis (SDS-PAGE) and transferred onto nitrocellulose membranes (Hybond C, Amersham) following standard protocols. After blocking, membranes were incubated overnight at 4°C with the primary antibodies: anti-GR (sc-8992, SantaCruz Biotechnology), anti-phospho-GR Ser211 (4161, Cell Signalling) and anti-Actin (A3853, Sigma-Aldrich) followed by dye-conjugated secondary antibodies (LI-COR® Biosciences). Bound complexes were detected with the Odyssey® infrared imaging system (LI-COR®) and quantified by Image J software.
Figure 5 Selective glucocorticoid receptor agonist GSK866 and its analogs UAMC-1217, UAMC-1218 trigger glucocorticoid receptor (GR) Ser211 phosphorylation. (A) Western detection of expression levels of Actin, GR, and GR Ser S211 phosphorylation in HaCat cells following 6 h treatment with 1 µM Dex, UAMC-1217, UAMC-1218, or GSK866. (B) Bar plot representation of Western blot intensities of Actin, GR, and GR Ser S211 phosphorylation observed in panel A, as quantified by Image J. (C) Western detection of expression levels of Actin, GR expression, and Ser S211 phosphorylation in HaCat cells following 6 h treatment with, respectively, 10, 100, or 1,000 nM Dex or UAMC-1217. (D) Bar plot representation of Western blot intensities of Actin, GR, and GR Ser S211 phosphorylation observed in panel (C), as quantified by free Image J software.

[4] = test system: GR nuclear translocation in A549 cells; test: Immunofluorescence of nuclear GR translocation in A549 cells; assay type: cell-based, human; conditions: serum starved A549 cells, 1 µM, 30 min
Method: To detect endogenous GR in A549 cells, cells were grown in serum free media for 24 h followed by treatment with 1 µM of specific GR ligands. After 30 min of treatment, cells on the cover glass were fixed in 4% formaldehyde in phosphate-buffered saline (PBS), permeabilized with 0.3% Triton X-100–PBS, and then blocked in 5% milk, 10% FCS, 0.3% bovine serum albumin, and 0.3% Triton X-100 in PBS for 30 min at room temperature. Primary antibodies against anti GR-antibody (SantaCruz Biotechnology) were used at a dilution of 1:200. Nuclei were stained by DAPI and samples were analyzed using a confocal Leica LSM410 microscope. To quantify nuclear translocation of GR in a standardized manner, multichannel fluorescence images were analyzed using a script for FIJI image analysis freeware (http://fiji.sc) that is essentially based on a pipeline described before (CellBlocks.ijm) ([39]), and is available upon request. In brief, the analysis first segments nuclei in the Hoechst/DAPI channel and then uses the nuclear mask to define perinuclear cytoplasmic regions of interest (ROIs). Nuclei are detected after local contrast enhancement and Gaussian smoothing to, respectively, cover for spatial illumination heterogeneity and noise. After automatic thresholding (Isodata algorithm), touching nuclei are separated using a conditional watershed algorithm ([40]). Next, cytoplasmic ROIs are determined as concentric bands around the nuclei by Voronoi-restrained region growing ([41]). Finally, the average intensity of the GR channel is measured in both the nuclear and cytoplasmic ROIs and the nuclear-to cytoplasm signal intensity ratio (N/C Ratio) is calculated per cell (Figure S1 in Supplementary Material) ([42]).
Figure 6 Selective glucocorticoid receptor agonist GSK866 analogs UAMC-1217, UAMC-1218, but not UAMC-1158 and UAMC-1159 trigger nuclear glucocorticoid receptor (GR) translocation. (A) Serum starved A549 cells were left solvent treated or treated for 30 min with 1 µM Dex, Dex-mesylate (Dex-Mes), GSK866, UAMC-1158, UAMC-1159, UAMC-1217, or UAMC-1218. GR translocation was evaluated by immunofluorescence whereas nuclei were stained by DAPI dye. Magnification is at 100×. White scalebars represent […]. (B) Automated image quantification of GR translocation of three replicate immunofluorescence images of the different experimental setups.

GR [5] = test system: GR; set-up: method as in PMID 27612544; conditions: ref [14], cited from earlier work; for % inhibition of GR ligand binding: 1.5 nM [3H]-dexamethasone, 1 µM ligand; for pIC50 / pKi: displacement of radiolabeled Dex; for pIC50: read-out: IC50 (GR radioligand binding); for pKi: read-out: Ki (GR radioligand binding); for displacement of radiolabeled Dex: cell-based ligand-binding competition assay
GR [6] = test: Cell-based GR ligand-binding competition assay with [3H]-dexamethasone; conditions: from IC50 values of ligand displacement assays; ref [14]
recombinant GR-LBD (hGR) = test: Mass spectrometry of tryptic peptides of recombinant GR-LBD after ligand incubation (covalent binding); set-up: species or system human; conditions: 2 h at 37°C, trypsin digestion, LC-MS/MS
Method: Recombinant His6-MBP-mCaspase3 site-LBD-hGR was expressed in the Escherichia coli strain BL21codon + pICA2 that was transformed with the corresponding pLHM36LBD-hGR plasmid and in which expression was induced by Isopropyl β-D-1-thiogalactopyranoside (IPTG) under control of a pL-promotor. The transformed bacteria were grown in Luria Bertani medium supplemented with ampicillin (100 µg/ml) and kanamycin (50 µg/ml) overnight at 28°C before 1/100 inoculation in 12 × 0.5 l provided with Luria Bertani medium supplemented with ampicillin (100 µg/ml) and 1% glycerol in a shaker incubator. The cells were grown to an optical density at AU 600 nm of 0.65, transferred to 20°C and expression was induced by addition of 1 mM IPTG overnight. Cells were then harvested and frozen at −20°C. […] After thawing, the cells were re-suspended at 3 ml/g in cold 20 mM Tris-HCl pH 7.4, 200 mM NaCl, 1 mM EDTA, 1 tablet complete protease inhibitor cocktail from Roche/50 ml, and 10 mM β-mercaptoethanol. The cytoplasmic fraction was prepared by sonication of the cells on ice and isolated by centrifugation at 18,000 × g for 30 min. All further purification steps were conducted at 4°C. The clear supernatant was applied to an amylase column (BioLabs, XK26 × 20, 100 ml), equilibrated with 20 mM Tris–HCl pH 7.4, 200 mM NaCl, 1 mM EDTA, and 10 mM β-mercaptoethanol. The column was eluted with 20 mM Tris–HCl pH 7.4, 200 mM NaCl, 1 mM EDTA, 10 mM maltose, and 10 mM β-mercaptoethanol. […] Recombinant purified His-MBP-DEVD-GR-LBD fusion protein was dissolved at a concentration of 1 mg in 1.7 ml PBS buffer.
Each aliquot was incubated 2 h at 37°C. […] 120 µl of each sample was loaded onto a spin column and the flow-through was collected (1,500 × g, 2 min). Trypsin (5 µl of 20 mM stock solution) was added, and the samples were incubated 20 h at 37°C. Then, 0.1% FA (formic acid) (41.5 µl) and 20 mM TCEP in 0.1% FA (18.5 µl, 5.7 mg TCEP/ml) were added [final volume = 185 µl, final concentration TCEP = 2 mM, 1 µg material/2.5 μl], and the samples were subjected to LC–MS/MS analysis.
The obtained peptide mixtures were introduced onto an LC–MS/MS system; the Ultimate 3000 RSLC nano (Dionex, Amsterdam, The Netherlands) in-line connected to an LTQ-Orbitrap Velos (Thermo Fisher Scientific, Bremen, Germany). The sample mixture was loaded on a trapping column [made in-house, 100 µm internal diameter (I.D.) × 20 mm, 5 µm C18 beads (Reprosil-HD, Dr. Maisch)]. After back flushing from the trapping column, the sample was loaded on a reverse-phase column [made in-house, 75 µm I.D. × 150 mm, 5 µm C18 beads (Reprosil-HD, Dr. Maisch)].
The mass spectrometer was operated in data-dependent mode, automatically switching between MS and MS/MS acquisition for the 10 most abundant peaks in a given MS spectrum. […]

Row | SMILES | GR transactivation in GRE-luc reporter at 10 nM [1] | GR transactivation in GRE-luc reporter [1] | NFκB transrepression in NFκB-luc reporter [2] | GR Ser211 phosphorylation [3] | nuclear GR translocation [4] | % inhibition of GR ligand binding (GR [5]) [%] | pIC50 (GR [5]) | pKi (GR [5]) | fold lower GR-LBD affinity versus GSK866 (GR [6]) | inhibition at 0.01 µM ([2]; L929sA, 10 nM compound) [%] | Modifications: GR-LBD cysteine-containing peptide covalently bound (recombinant GR-LBD (hGR)) | Modifications: GR-LBD cysteine-containing peptide covalently bound (recombinant GR-LBD (hGR); listed as 1218) | displacement of radiolabeled Dex (GR [5]) | inhibition of TNF-induced NFκB reporter gene activity ([2]; 10 nM compound)
1 | CCN(C[C@@](O)(CNC(=O)c1cnn(-c2ccc(F)cc2)c1N)C(F)(F)F)C(=O)c1c(Cl)cccc1Cl [GSK866] | significant GR transactivation | strong GR agonistic activities | dose-dependent NFκB-transrepression effects | enhance the Ser211 phosphorylation | induce (partial) translocation of GR from the cytosol to the nucleus | 100 | 8.34 | 8.64 | – | – | – | – | – | –
2 | C=CC(=O)Nc1ccc(Cl)c(C(=O)N(CC)C[C@@](O)(CNC(=O)c2cnn(-c3ccc(F)cc3)c2N)C(F)(F)F)c1Cl [UAMC-1218] | significantly reduced GR transactivation to levels below transactivation observed with 10 nM of Dex | – | dose-dependent NFκB-transrepression effects | enhance the Ser211 phosphorylation | induce (partial) translocation of GR from the cytosol to the nucleus | 96 | 7.47 | 7.77 | approx. 5 fold | ~95 | Cys-622 | Peptide 615–633 → C622 | – | –
3 | CCN(C[C@@](O)(CNC(=O)c1cnn(-c2ccc(F)cc2)c1N)C(F)(F)F)C(=O)CCN1C(=O)C=CC1=O [UAMC-1158] | – | completely fail to elicit any GR transactivation at any dose tested | completely ineffective | failed to show any change in GR phosphorylation status | completely ineffective | −2 | – | – | – | – | – | – | failed to show displacement of radiolabeled Dex | –
4 | CCN(CC(O)(CNC(=O)c1cnn(-c2ccc(F)cc2)c1N)C(F)(F)F)C(=O)C1CCCN1C(=O)CCl (stereo not drawn) [UAMC-1159] | – | completely fail to elicit any GR transactivation at any dose tested | completely ineffective | – | completely ineffective | −12 | – | – | – | – | – | – | failed to show displacement of radiolabeled Dex | –
5 | C[C@@H]1C[C@H]2[C@@H]3CCC4=CC(=O)C=C[C@]4(C)[C@@]3(F)[C@@H](O)C[C@]2(C)[C@@]1(O)C(=O)COS(C)(=O)=O [Dex-Mes, dexamethasone-21-mesylate, reference compound] | – | weaker dose-dependent GR-dependent transactivation than Dex | – | – | induce (partial) translocation of GR from the cytosol to the nucleus | 99 | 8.14 | 8.43 | – | – | – | – | – | 40–45%
